Experimental findings from US5336673A, “3-substituted cephem compounds” (priority 1990, dated 1994) are described below.

Molecules are shown by their SMILES. In brackets after ≈: the same amount, converted by molar mass.

In assay [1] the target is T1, β-lactamase from Citrobacter freundii (Citrobacter freundii, UniProt P05193).
T1 construct: directly isolated from Enterobacter cloacae P99, E. coli TEM and Citrobacter freundii; endogenous in cells
The assay is described as follows: Stability against β-lactamase, relative hydrolysis. The assay is classed as biochemical. Conditions: Citrobacter freundii enzyme; 100 μM; relative(percentage), Cephaloridine taken as 100; OD at 260 nm. The procedure:
(§1) In order to establish the usefulness in clinical applications of the compounds provided by the invention, the compound of Example 18 was tested for stability against the β-lactamase and for antibacterial activity on systemic infection model.
(§2) First, the stability against the β-lactamase was tested by determining the relative(percentage) hydrolysis of the compound of Example 18, relative to that of Cephaloridine, taking the absolute rate of Cephaloridine as 100.
(§3) The β-lactamases employed in the test were directly isolated from Enterobacter cloacae P99, E. coli TEM and Citrobacter freundii, and the antibiotics for comparison were Cephaloridine, Cephradine, Cefoperazone and Cefotaxime.
(§4) Cephaloridine, other known antibiotics and the compound of Example 18 were reacted with each of the enzymes isolated from the strains and the OD were determined at 260 nm, λmax of Cephaloridine. The relative hydrolysis of various compounds were calculated relative to the OD of Cephaloridine.

Assay [2] concerns the target T2, β-lactamase from E. coli TEM (Escherichia coli, UniProt P62593).
T2 construct: directly isolated from Enterobacter cloacae P99, E. coli TEM and Citrobacter freundii; endogenous in cells; host or cells: E. coli TEM (plasmid-carried enzyme of the strain)
The assay is described as follows: Stability against β-lactamase, relative hydrolysis. The assay is classed as biochemical. Conditions: E. coli TEM enzyme; 100 μM; relative(percentage), Cephaloridine taken as 100; OD at 260 nm. The procedure: as §1, §2, §3, §4

Assay [3] has as its target T3, β-lactamase from Enterobacter cloacae P99 (Enterobacter cloacae, UniProt P05364).
T3 construct: directly isolated from Enterobacter cloacae P99, E. coli TEM and Citrobacter freundii; endogenous in cells; host or cells: Enterobacter cloacae P99
Nature of the assay: Stability against β-lactamase, relative hydrolysis. The assay is classed as biochemical. The following applies: Enterobacter cloacae P99 enzyme; 100 μM; relative(percentage), Cephaloridine taken as 100; OD at 260 nm. The procedure: as §3
The relative hydrolysis of various compounds were calculated relative to the OD of Cephaloridine.

For a further assay, the system named is Escherichia coli TEM. The assay is described as follows: Antibacterial activity, MIC by Agar dilution method, standard test strain 10. The class given is cell-based. Conditions: Escherichia coli TEM; 10^7 CFU/ml, 37° C., 18 hours; read-out: MIC. The procedure: (§5) The antibacterial activity was determined by an Agar dilution method as described below.
(§6) That is, the two-fold serial dilutions of the antibacterial compounds (1000 μg compound/ml) were prepared and dispersed in Muller Hinton Agar in a petri dish to a concentration of 100~0.002 μg/ml. The culture broths of standard test strains were inoculated on the medium to a concentration 10^7 CFU/ml, and incubated at 37° C. for 18 hours. The concentration of compounds(I) at which the strains were not grown was regarded as minimum inhibition concentration (MIC).
(§7) The results of antibacterial activity test of the representative examples of the compound (I) against 20 standard test strains shown in terms of MIC were indicated in Table 1.

The next assay has as its system Enterobacter cloacae P99. Nature of the assay: Antibacterial activity, MIC by Agar dilution method, standard test strain 19. The class given is cell-based. Conditions: P99, 18 h. As for the experimental part:
as §5, §6, §7
19. Enterobacter cloacae P99
(In general: In agar dilution the substance is mixed into plates at graded concentrations.)

Another assay relates to Escherichia coli DC 2. The assay is described as follows: Antibacterial activity, MIC by Agar dilution method, standard test strain 9. The assay is classed as cell-based. The following applies: DC2; Escherichia coli DC 2; 10^7 CFU/ml, 37° C., 18 hours; read-out: MIC. As for the experimental part:
as §5, §6, §7

A further assay concerns Klebsiella oxytoca 1082E. The assay is described as follows: Antibacterial activity, MIC by Agar dilution method, standard test strain 17. The class given is cell-based. The following applies: 10^7 CFU/ml, 37° C., 18 hours. The procedure: as §5, §6, §7
Assay [4] concerns Staphylococcus aureus 503. Nature of the assay: Antibacterial activity, MIC by Agar dilution method, standard test strain 6. The class given is cell-based. Conditions: 10^7 CFU/ml, 37° C., 18 hours. As for the experimental part: as §5, §6, §7
6. Staphylococcus aureus 503

The test system of assay [5] is Pseudomonas aeruginosa 9027. Nature of the assay: Antibacterial activity, MIC by Agar dilution method, standard test strain 12. The class given is cell-based. The following applies: 10^7 CFU/ml, 37° C., 18 hours. As for the experimental part: as §5, §6, §7
12. Pseudomonas aeruginosa 9027

Assay [6] has as its system Pseudomonas aeruginosa 1771. Nature of the assay: Antibacterial activity, MIC by Agar dilution method, standard test strain 14. The assay is classed as cell-based. The following applies: 10^7 CFU/ml, 37° C., 18 hours. The procedure:
as §5, §6, §7
14. Pseudomonas aeruginosa 1771

In assay [7] the test system is Pseudomonas aeruginosa 1771M. Nature of the assay: Antibacterial activity, MIC by Agar dilution method, standard test strain 15. The class given is cell-based. Conditions: 18 h. The procedure:
as §5, §6, §7
15. Pseudomonas aeruginosa 1771M

The next assay concerns Escherichia coli 1507E. The assay is described as follows: Antibacterial activity, MIC by Agar dilution method, standard test strain 11. The class given is cell-based. The following applies: Escherichia coli 1507E; 10^7 CFU/ml, 37° C., 18 hours; read-out: MIC. As for the experimental part: as §5, §6, §7
The subject of another assay is Staphyloccus aureus 285. Nature of the assay: Antibacterial activity, MIC by Agar dilution method, standard test strain 5. The assay is classed as cell-based. Conditions: 10^7 CFU/ml, 37° C., 18 hours. As for the experimental part:
as §5, §6, §7
5. Staphyloccus aureus 285

The subject of assay [8] is Streptococcus faecium MD 86. The assay is described as follows: Antibacterial activity, MIC by Agar dilution method, standard test strain 3. The class given is cell-based. Conditions: Enterococcus faecium, MD86, 10^7 CFU/ml, 37° C., 18 hours. The procedure: as §5, §6, §7
3. Streptococcus faecium MD 86

For assay [9], the system named is Staphylococcus aureus SG 511. Nature of the assay: Antibacterial activity, MIC by Agar dilution method, standard test strain 4. The assay is classed as cell-based. The following applies: SG511, 10^7 CFU/ml, 37° C., 18 hours. As for the experimental part:
as §5, §6, §7
4. Staphylococcus aureus SG 511

Assay [10] concerns Gram-positive strains as well as Gram-negative strains including Pseudomonas. Nature of the assay: Antibacterial activity (summary in words). The class given is cell-based. Conditions: Gram-positive and Gram-negative strains. As for the experimental part: as §5, §6
The test system of assay [11] is Klebsiella aerogenes 1522E. The assay is described as follows: Antibacterial activity, MIC by Agar dilution method, standard test strain 18. The assay is classed as cell-based. Conditions: Klebsiella aerogenes 1522E; 10^7 CFU/ml, 37° C., 18 hours; read-out: MIC. The procedure: as §5, §6, §7
18. Klebsiella aerogenes 1522E

In assay [12] the test system is Pseudomonas aeruginosa 1592E. Nature of the assay: Antibacterial activity, MIC by Agar dilution method, standard test strain 13. The assay is classed as cell-based. The following applies: 10^7 CFU/ml, 37° C., 18 hours. As for the experimental part: as §5, §6, §7
13. Pseudomonas aeruginosa 1592E

In the next assay the test system is Escherichia coli DC O. The assay is described as follows: Antibacterial activity, MIC by Agar dilution method, standard test strain 8. The class given is cell-based. The following applies: Escherichia coli, 18 h. The procedure: as §5, §6, §7
The next assay deals with Escherichia coli O 55. The assay is described as follows: Antibacterial activity, MIC by Agar dilution method, standard test strain 7. Conditions: O55; Escherichia coli O 55; 10^7 CFU/ml, 37° C., 18 hours; read-out: MIC. The class given is cell-based. The procedure:
as §5, §6, §7

Assay [13] concerns Enterobacter cloacae 1321E. Nature of the assay: Antibacterial activity, MIC by Agar dilution method, standard test strain 20. The assay is classed as cell-based. The following applies: Enterobacter cloacae 1321E; 10^7 CFU/ml, 37° C., 18 hours; read-out: MIC. The procedure: as §5, §6, §7
20. Enterobacter cloacae 1321E

The subject of assay [14] is Streptococcus pyogenes A 308. The assay is described as follows: Antibacterial activity, MIC by Agar dilution method, standard test strain 1. The class given is cell-based. Conditions: A308, 10^7 CFU/ml, 37° C., 18 hours. As for the experimental part: as §5, §6, §7
1. Streptococcus pyogenes A 308

For assay [15], the system named is Streptococcus pyogenes A 77. The assay is described as follows: Antibacterial activity, MIC by Agar dilution method, standard test strain 2. The assay is classed as cell-based. The following applies: A77, 10^7 CFU/ml, 37° C., 18 hours. The procedure:
as §5, §6, §7
2. Streptococcus pyogenes A 77

A further assay has as its system Salmonella typhimurium. The assay is described as follows: Antibacterial activity, MIC by Agar dilution method, standard test strain 16. The assay is classed as cell-based. The following applies: Salmonella enterica, 10^7 CFU/ml, 37° C., 18 hours. The procedure: as §5, §6, §7
16. Salmonella typhimurium

T1 sequence (P05193 21-381): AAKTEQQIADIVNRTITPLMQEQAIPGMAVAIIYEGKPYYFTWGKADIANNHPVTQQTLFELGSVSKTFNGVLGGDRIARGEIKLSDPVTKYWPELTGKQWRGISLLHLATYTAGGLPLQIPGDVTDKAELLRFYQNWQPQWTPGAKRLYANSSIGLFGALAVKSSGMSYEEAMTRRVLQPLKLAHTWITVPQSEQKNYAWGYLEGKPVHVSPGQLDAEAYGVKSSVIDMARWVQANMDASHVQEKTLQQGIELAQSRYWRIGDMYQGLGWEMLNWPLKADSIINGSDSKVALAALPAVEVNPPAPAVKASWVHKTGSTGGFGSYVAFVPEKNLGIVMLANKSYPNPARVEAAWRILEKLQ
T2 sequence (P62593 24-286 limits assumed): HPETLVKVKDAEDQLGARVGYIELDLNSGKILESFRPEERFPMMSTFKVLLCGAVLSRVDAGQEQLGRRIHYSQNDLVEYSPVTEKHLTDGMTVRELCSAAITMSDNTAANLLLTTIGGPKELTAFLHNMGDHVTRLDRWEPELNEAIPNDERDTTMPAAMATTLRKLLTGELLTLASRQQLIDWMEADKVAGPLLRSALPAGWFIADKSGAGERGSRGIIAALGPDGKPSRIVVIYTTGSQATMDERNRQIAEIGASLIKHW
T3 sequence (P05364 21-381): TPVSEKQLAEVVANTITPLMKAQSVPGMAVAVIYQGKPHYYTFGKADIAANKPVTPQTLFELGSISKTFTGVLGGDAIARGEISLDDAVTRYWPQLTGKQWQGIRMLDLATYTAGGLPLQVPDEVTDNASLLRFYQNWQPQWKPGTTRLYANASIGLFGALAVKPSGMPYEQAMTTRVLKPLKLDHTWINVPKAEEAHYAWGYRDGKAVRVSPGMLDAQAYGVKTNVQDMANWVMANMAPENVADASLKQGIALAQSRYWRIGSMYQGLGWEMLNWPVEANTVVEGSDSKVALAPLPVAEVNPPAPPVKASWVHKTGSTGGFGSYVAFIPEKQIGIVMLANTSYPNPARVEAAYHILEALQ

On to `CCN1CCN(C(=O)N[C@@H](C(=O)N[C@@H]2C(=O)N3C(C(=O)O)=C(CSc4nnnn4C)CS[C@H]23)c2ccc(O)cc2)C(=O)C1=O` [Cefoperazone], for which the “Relative hydrolysis by β-lactamase” value in [1] is listed as 1.2; in [2], 38.6.

For `O=C(Cc1cccs1)N[C@@H]1C(=O)N2C(C(=O)[O-])=C(C[n+]3ccccc3)CS[C@H]12` [Cephaloridine], the “Relative hydrolysis by β-lactamase” value in assay [1], in assay [2] and in assay [3] was 100 each time.

The term MIC denotes the least concentration at which growth counts as inhibited. As for `CO/N=C(\C(=O)N[C@@H]1C(=O)N2C(C(=O)[O-])=C(CN3CC[N+](C)(N)CC3)CS[C@H]12)c1csc(N)n1` [Example 11, (6R,7R)-7-[(Z)-2-(2-aminothiazol-4-yl)-2-methoxyiminoacetamido]-3-[(1-amino-1-methyl-4-piperazinium)methyl]-ceph-3-em-4-carboxylate], the minimum inhibitory concentration (MIC) in the assay on Escherichia coli TEM turned out to be 0.391 µg/mL (≈ 0.766 µM); with Enterobacter cloacae P99, 100 µg/mL (≈ 196 µM); with Escherichia coli DC 2 it was 0.781 µg/mL (≈ 1.53 µM); in the assay on Klebsiella oxytoca 1082E, 6.25 µg/mL (≈ 12.2 µM); in assay [4], 0.781 µg/mL (≈ 1.53 µM); in assay [5] it was 50 µg/mL (≈ 97.9 µM). The minimal inhibitory concentration (MIC) is 25 µg/mL (≈ 49 µM) in [6]; 1.56 µg/mL (≈ 3.06 µM) in assay [7]; 0.781 µg/mL (≈ 1.53 µM) in the assay on Escherichia coli 1507E; 12.5 µg/mL (≈ 24.5 µM) in the assay on Staphyloccus aureus 285; above 100 µg/mL in assay [8]; 1.56 µg/mL (≈ 3.06 µM) in [9]. The minimal inhibitory concentration (MIC) in [11] came to 0.391 µg/mL (≈ 0.766 µM); in assay [12], 50 µg/mL (≈ 97.9 µM); in the assay on Escherichia coli DC O it was 0.781 µg/mL (≈ 1.53 µM); in the assay with Escherichia coli O 55, 0.195 µg/mL (≈ 0.382 µM); in [13], 0.195 µg/mL (≈ 0.382 µM); in assay [14] it was 0.013 µg/mL (≈ 0.0255 µM). In addition, the values for the MIC (in assay [15]; in the assay on Salmonella typhimurium) were 7 ng/mL (≈ 0.0137 µM) and 0.391 µg/mL (≈ 0.766 µM), respectively. Moreover, the “antibacterial activity (in words)” value in [10] is on record as “excellent antibacterial activity”.
